Results from paper PMC9268243, “Metabolic Behaviors of Aconitum Alkaloids in Different Concentrations of Aconiti Lateralis Radix Praeparata and Effects of Aconitine in Healthy Human and Long QT Syndrome Cardiomyocytes” (Molecules, 2022).

Tested on: normal hiPSC-CMs
Assay: Whole-cell current-clamp action potential recording, normal hiPSC-CMs
Assay type: cell-based, human
Conditions: normal hiPSC-CMs, 0.05, 0.5 and 5 μM, 1 Hz stimulation
Excerpt: Standard patch-clamp techniques were used to record action potentials, and L-type calcium currents. Composition of intracellular fluid and extracellular fluid were shown in Table 7 and Table 8, respectively. The signal was amplified using an HEKA EPC-10 patch-clamp amplifier (HEKA, Electronics, Ludwigshafen, Germany) and low-pass filtered at 5 kHz. Patch pipettes were fabricated from glass capillaries using a Sutter P-97 microelectrode puller (Novato, CA, USA) and the tips were heat polished with a microforge (NARISHIGE MF-900) to gain a resistance of 2–5 MΩ. Data acquisition was achieved using HEKA Patchmaster (V2x73.2). Data analysis and fit were performed using Clamfit and Graphpad Prism 6.0. The experiment was conducted at 37 °C. One cell can test one or more drugs, or multiple concentrations of the same drug but needs to be rinsed with extracellular fluid between each test. Nifedipine (Sigma) was used as a positive control to ensure cell quality. External solution containing 0.1% DMSO was applied as vehicle to establish the baseline. Recording was done at a temperature-controlled room of 35–37 degrees Celsius.
Isoproterenol, nifedipine, and AC were purchased from Sigma-Aldrich, which were resolved in DMSO (Sigma-Aldrich, D2650). Drug compounds final concentration were AC (0.05, 0.5,5 μM), nifedipine (1 μM), isoproterenol (3 μM), respectively. […]

With `CCN1C[C@]2(COC)[C@H](O)C[C@H](OC)[C@@]34[C@@H]5C[C@@]6(O)[C@H](OC(=O)c7ccccc7)[C@@H]5[C@@](OC(C)=O)([C@@H]([C@H](OC)[C@H]23)[C@@H]14)[C@@H](O)[C@@H]6OC` [AC, aconitine] the APD50 was “concentration-dependently shortened”.
